# Assay results from US10350210B2, “EGFR and ALK dual inhibitor” (PRECEDO PHARMACEUTICALS CO., LTD, priority 2015, dated 2019).
# Experiments:
# NCI-H2122 = assay: Growth of cancer cells (Cell Titer-Glo viability), NCI-H2122; format: cell-based; details: Homo sapiens; NCI-H2122 (wild-type EGFR), 72 hrs
# [1] = tested on: EGFR protein (EGFR L858R/T790M, H1975); assay: Effect on signaling pathway in cells, H1975; format: cell-based, human; details: 4 h
# Source text: In four cell lines (all purchased from ATCC) including non-small cell lung cancer cell line A549 (expressing wild-type EGFR gene), non-small cell lung cancer cell line H1975 (expressing EGFR L858R/T790M double mutant gene), non-small cell lung cancer cell line H3255 (expressing EGFR L858R mutant gene) and non-small cell lung cancer cell line PC-9 (expressing EGFR delE746_A750 mutant gene), the effect of Compound 1 on EGFR or other protein kinases related to signaling pathways of EGFR such as Stat3, AKT, ErK, eIF4E, 4EBP1, P70S6K was assessed by assaying a number of cellular biochemical and functional endpoints. […] The effect of Compound 1 on phosphorylation of Stat3Y705, AKT T308, AKT 5473, Erk T202/204, EGFR Y1068, P70S6K Thr389, eIF4E Ser209, Erk T202/204, 4EBP1 (Thr37/46) in these cell lines was assayed (FIGS. 1a to 1d).
# In non-small cell lung cancer cell line H1975 (expressing EGFR L858R/T790M double mutant gene), the effect of Compound 10 on EGFR and other protein kinases that are closely related to the signaling pathways of EGFR such as Stat3, AKT, ErK, eIF4E, 4EBP1, P70S6K in this cell was assessed by assaying a number of cellular biochemical and functional endpoints. […] The effect of Compound 10 on phosphorylation of Stat3Y705, AKT T308, AKT S473, Erk T202/204, EGFR Y1068, P70S6K Thr389, eIF4E Ser209, Erk T202/204, 4EBP1 (Thr37/46) in this cell line was assayed (FIG. 1g).
GI50 (NCI-H2122) [nM],SMILES,concentration able to completely inhibit the phosphorylation of EGFR protein (also affects AKT and ERK phosphorylation) [1] [µM]
190,"C=CC(=O)Nc1cc(Nc2ncc(Cl)c(Nc3ccccc3S(=O)(=O)C(C)C)n2)c(OC)cc1N1CCCN(C)CC1 [Compound 10, N-(5-(5-chloro-4-(2-(isopropylsulfonyl)phenylamino)pyrimidin-2-ylamino)-4-methoxy-2-(4-methyl-1,4-homopiperazin-1-yl)phenyl)acrylamide]",0.03
9,"C=CC(=O)Nc1cc(Nc2ncc(Cl)c(Nc3ccccc3S(=O)(=O)C(C)C)n2)c(OC)cc1N1CCN(CC)CC1 [Compound 1, N-(5-(5-chloro-4-(2-(isopropylsulfonyl)phenylamino)pyrimidin-2-ylamino)-2-(4-ethylpiperazin-1-yl)-4-methoxyphenyl)acrylamide]",0.03
